# Measurements published in patent US9376470B2, “Polypeptide having angiogenesis-inducing activity and antibacterial activity, and use thereof for medical purposes” (FunPep Inc., priority 2008, dated 2016).
# Peptide text beside a SMILES is read from it.
# Tests used:
# Experiment in all cases: Antibacterial activity, ATP assay (BacTiter-Glo)
# Format in all cases: cell-based
# [1] = system: Staphylococcus aureus ATCC29213; conditions: for antibacterial activity against Staphylococcus aureus compared with AG30-5C: 10 μg/mL, ATP assay; for ATP (%) mean, Staphylococcus aureus: Table 4-1, ATP assay concentration: peptides 10, TOB 1.0, OX 0.5 μg/ml
# Procedure: (§1) The antibacterial activity of the polypeptides was measured using an ATP assay method. That is, using BacTiter-Glo Microbial Cell Viability Assay kit available from PROMEGA, the antibacterial activity of the peptides was evaluated from the viability of bacteria. […] With respect to the strains, Staphylococcus aureus ATCC29213 (S. aureus ATCC29213) as Gram-positive bacteria, or, alternatively, Pseudomonas aeruginosa (P. aeruginosa ATCC27853) as Gram-negative bacteria, was used. The bacteria were cultured in media for 3 to 4 hours, and thereafter absorbances at A600 were measured. Bacterial suspensions were diluted with Mueller-Hinton broth (MHB) according to McFarland #0.5. Each strain was added so as to attain about 0.5−1×10^5 CFU/mL (final concentration) in terms of Escherichia coli. […] A solution to which the peptides were not added was considered as a negative control, and a solution to which tobramycin (TOB) was added was considered as a positive control. […] Relative values were calculated by comparison with the negative control, and these values were regarded as the viability. ATP (%) of the antibacterial activity was measured in the same manner as mentioned above, and the “minimum inhibitory concentration (MIC)” was measured as follows. MIC is the lowest concentration of an agent that may inhibit the growth of a bacterium. MIC is used as a parameter for the efficacy of an antibacterial agent, for the strength of bacterial sensitivity, or the like. The bacteria can grow (proliferate) when the concentration is not higher than MIC, and cannot grow when the concentration is higher than MIC. Its measurement is carried out according to a method defined as a standard method by Japanese Society of Chemotherapy or CLINICAL AND LABORATORY […] (CLSI), but, in this Example, its measurement was carried out by a broth microdilution method in accordance with “M100-S17/M7-A7” (Performance Standards for Antimicrobial Susceptibility Testing; Seventeenth Informational Supplement, Vol. 27 No. 1) published by CLSI on January, 2007. That is, sensitivity test of agents was carried out using a microtiter plate or test tubes. With respect to each strain, Escherichia coli: ATCC 25922 (Escherichia coli ATCC 25922), Pseudomonas aeruginosa: ATCC 27853 (Pseudomonas aeruginosa ATCC 27853), Staphylococcus aureus: ATCC29213 (Staphylococcus aureus ATCC29213), Klebsiella pneumoniae: JCM 1662 (Klebsiella pneumoniae JCM 1662), enterobacteria (1): JCM 1232 (Enterobacter cloacae JCM 1232), enterobacteria (2): JCM 1235 (Enterobacter aerogenes JCM 1235), and Staphylococcus epidermidis: JCM 2414 (Staphylococcus epidermidis JCM 2414), were used. […] As the concentrations of the agents in ATP assay, the concentrations as described in the Tables were used.
# [2] = system: Pseudomonas aeruginosa ATCC27853; conditions: for antibacterial activity against Pseudomonas aeruginosa compared with AG30-5C: 10 μg/mL, ATP assay; for ATP (%) mean, Pseudomonas aeruginosa: Table 4-1, ATP assay concentration: peptides 10, TOB 1.0, CPFX 1.0, OX 0.5, MEPM 1.0 μg/ml
# Procedure: as §1
# [3] = system: Enterobacteria (2): Enterobacter aerogenes JCM 1235; conditions: ATP assay concentration: peptides 10, TOB 4.0, CPFX 1.0, OX 4.0, MEPM 8.0 μg/ml
# Procedure: (§2) That is, using BacTiter-Glo Microbial Cell Viability Assay kit available from PROMEGA, the antibacterial activity of the peptides was evaluated from the viability of bacteria. […] With respect to the strains, Staphylococcus aureus ATCC29213 (S. aureus ATCC29213) as Gram-positive bacteria, or, alternatively, Pseudomonas aeruginosa (P. aeruginosa ATCC27853) as Gram-negative bacteria, was used. The bacteria were cultured in media for 3 to 4 hours, and thereafter absorbances at A600 were measured. Bacterial suspensions were diluted with Mueller-Hinton broth (MHB) according to McFarland #0.5. Each strain was added so as to attain about 0.5−1×10^5 CFU/mL (final concentration) in terms of Escherichia coli. […] A solution to which the peptides were not added was considered as a negative control, and a solution to which tobramycin (TOB) was added was considered as a positive control. […] Relative values were calculated by comparison with the negative control, and these values were regarded as the viability. […] ATP (%) of the antibacterial activity was measured in the same manner as mentioned above, and the “minimum inhibitory concentration (MIC)” was measured as follows. MIC is the lowest concentration of an agent that may inhibit the growth of a bacterium. MIC is used as a parameter for the efficacy of an antibacterial agent, for the strength of bacterial sensitivity, or the like. The bacteria can grow (proliferate) when the concentration is not higher than MIC, and cannot grow when the concentration is higher than MIC. Its measurement is carried out according to a method defined as a standard method by Japanese Society of Chemotherapy or CLINICAL AND LABORATORY […] (CLSI), but, in this Example, its measurement was carried out by a broth microdilution method in accordance with “M100-S17/M7-A7” (Performance Standards for Antimicrobial Susceptibility Testing; Seventeenth Informational Supplement, Vol. 27 No. 1) published by CLSI on January, 2007. That is, sensitivity test of agents was carried out using a microtiter plate or test tubes. With respect to each strain, Escherichia coli: ATCC 25922 (Escherichia coli ATCC 25922), Pseudomonas aeruginosa: ATCC 27853 (Pseudomonas aeruginosa ATCC 27853), Staphylococcus aureus: ATCC29213 (Staphylococcus aureus ATCC29213), Klebsiella pneumoniae: JCM 1662 (Klebsiella pneumoniae JCM 1662), enterobacteria (1): JCM 1232 (Enterobacter cloacae JCM 1232), enterobacteria (2): JCM 1235 (Enterobacter aerogenes JCM 1235), and Staphylococcus epidermidis: JCM 2414 (Staphylococcus epidermidis JCM 2414), were used. […] As the concentrations of the agents in ATP assay, the concentrations as described in the Tables were used.
# [4] = system: Escherichia coli ATCC 25922; conditions: ATP assay concentration: peptides 10, TOB 1.0, CPFX 0.015, OX 0.5, MEPM 0.1 μg/ml
# Procedure: as §2
# [5] = system: Klebsiella pneumoniae JCM 1662; conditions: ATP assay concentration: peptides 10, TOB 4.0, CPFX 1.0, OX 0.5, MEPM 8.0 μg/ml
# Procedure: as §2
# [6] = system: Staphylococcus epidermidis JCM 2414; conditions: ATP assay concentration: peptides 10, TOB 1.0, CPFX 0.5, OX 0.5, MEPM 0.125 μg/ml
# Procedure: as §2
# [7] = Table 3, peptides 10 μg/mL, 3 hours, ATP relative to negative control
Compound,antibacterial activity against Staphylococcus aureus compared with AG30-5C [1],"ATP (%) mean, Staphylococcus aureus [1] [%]",antibacterial activity against Pseudomonas aeruginosa compared with AG30-5C [2],"ATP (%) mean, Pseudomonas aeruginosa [2] [%]","ATP (%) mean, Enterobacteria (2) [3] [%]","ATP (%) mean, Escherichia coli [4] [%]","ATP (%) mean, Klebsiella pneumoniae [5] [%]","ATP (%) mean, Staphylococcus epidermidis [6] [%]","Viability (%) Staphylococcus aureus [1, 7] [%]","Viability (%) Pseudomonas aeruginosa [2, 7] [%]"
CC(C)C[C@H](NC(=O)[C@H](CCCCN)NC(=O)[C@H](CCCNC(=N)N)NC(=O)[C@H](CCCCN)NC(=O)[C@H](CC(C)C)NC(=O)[C@H](CCCNC(=N)N)NC(=O)[C@H](CCCCN)NC(=O)[C@H](CCCNC(=N)N)NC(=O)[C@H](CC(C)C)NC(=O)[C@H](CCCNC(=N)N)NC(=O)[C@H](CCCNC(=N)N)NC(=O)[C@H](CCCCN)NC(=O)[C@H](CC(C)C)NC(=O)[C@H](CCCNC(=N)N)NC(=O)[C@H](Cc1c[nH]cn1)NC(=O)[C@H](CC(C)C)NC(=O)[C@H](Cc1ccccc1)NC(=O)[C@H](CCCNC(=N)N)NC(=O)[C@H](CC(C)C)NC(=O)[C@@H](N)CCC(=O)O)C(=O)N[C@@H](CCCNC(=N)N)C(N)=O [SR-2] (H-ELRFLHRLKRRLRKRLKRKLR-NH2; N-terminus assumed),higher antibacterial activity against Staphylococcus aureus than AG30-5C,4.4,higher antibacterial activity against Pseudomonas aeruginosa than AG30-5C,1.0,15.3,6.2,9.1,2.6,,
"Cc1onc(-c2ccccc2)c1C(=O)N[C@@H]1C(=O)N2[C@@H]1SC(C)(C)[C@@H]2C(=O)O [OX, oxacillin, reference compound]",,72.8,,83.1,86.9,114.4,142.2,101.4,,
"C[C@@H](O)[C@H]1C(=O)N2C(C(=O)O)=C(S[C@@H]3CN[C@H](C(=O)N(C)C)C3)[C@H](C)[C@H]12 [MEPM, meropenem, reference compound]",,,,20.2,2.3,15.7,11.9,28.2,,
CSCC[C@H](NC(=O)[C@H](CCCNC(=N)N)NC(=O)[C@@H](N)CCCCN)C(=O)N[C@@H](CCCNC(=N)N)C(=O)N[C@@H](CCCCN)C(=O)N[C@@H](CCCNC(=N)N)C(=O)N[C@@H](CC(C)C)C(=O)N[C@@H](CCCCN)C(=O)N[C@@H](CCCNC(=N)N)C(=O)N[C@@H](CCCCN)C(=O)N[C@@H](CC(C)C)C(=O)N[C@@H](CCCNC(=N)N)C(=O)N[C@@H](CC(C)C)C(=O)N[C@@H](Cc1c[nH]c2ccccc12)C(=O)N[C@@H](Cc1c[nH]cn1)C(=O)N[C@@H](CCCNC(=N)N)C(=O)N[C@@H](CCCCN)C(=O)N[C@@H](CCCNC(=N)N)C(=O)N[C@@H](Cc1ccc(O)cc1)C(=O)N[C@@H](CCCCN)C(=O)O [SR-5] (H-KRMRKRLKRKLRLWHRKRYK-OH; N-terminus assumed),,24.2,,16.4,41.5,27.0,30.0,3.6,,
"NC[C@H]1O[C@H](O[C@H]2[C@H](O)[C@@H](O[C@H]3O[C@H](CO)[C@@H](O)[C@H](N)[C@H]3O)[C@H](N)C[C@@H]2N)[C@H](N)C[C@@H]1O [TOB, tobramycin, reference compound]",,3.1,,1.7,0.5,3.8,3.8,4.2,3.5,1.8
CSCC[C@H](NC(=O)[C@H](CCCNC(=N)N)NC(=O)[C@H](CCCCN)NC(=O)[C@H](CC(C)C)NC(=O)[C@H](CCCNC(=N)N)NC(=O)[C@H](Cc1c[nH]cn1)NC(=O)[C@H](CC(C)C)NC(=O)[C@H](Cc1ccccc1)NC(=O)[C@H](CCCNC(=N)N)NC(=O)[C@H](CC(C)C)NC(=O)[C@@H](N)CCC(=O)O)C(=O)N[C@@H](CCCNC(=N)N)C(=O)N[C@@H](CCCCN)C(=O)N[C@@H](CCCNC(=N)N)C(=O)N[C@@H](CC(C)C)C(=O)N[C@@H](CCCCN)C(=O)N[C@@H](CCCNC(=N)N)C(=O)N[C@@H](CCCCN)C(=O)N[C@@H](CC(C)C)C(=O)N[C@@H](CCCNC(=N)N)C(N)=O [SR-3] (H-ELRFLHRLKRMRKRLKRKLR-NH2; N-terminus assumed),higher antibacterial activity against Staphylococcus aureus than AG30-5C,3.5,higher antibacterial activity against Pseudomonas aeruginosa than AG30-5C,3.3,23.5,16.5,20.3,4.1,,
